Patent US10632137B2, “Composition containing ivermectin for exterminating Clavinema mariae infection on Sebastes schlegeli” (REPUBLIC OF KOREA (National Institute of Fisheries Science), priority 2017, dated 2020)
Entries after “also recorded” stand apart in the source; their conditions may differ.

Tests used:
Clavinema mariae [1] = test: organism not typed; conditions: for Viability of Clavinema mariae (Dead %/Survived): after 1 hour; for Antiparasitic effect of Clavinema mariae in vitro compared with the recommended concentration: in vitro killing concentration versus recommended concentration of Table 3; for Killing Concentration (ppm): in vitro, Clavinema mariae in PBS, 1 hour
Description: Candidate materials of a medicine for exterminating Clavinema mariae infection on Sebastes schlegeli were screened by examining various documents (Table 1). […] From the Sebastes schlegeli naturally infected with Clavinema mariae, the Clavinema mariae was carefully removed with tweezers, preserved in PBS, and directly exposed to nine candidate materials at various concentrations to evaluate the antiparasitic effect. […] However, after being killed, the movement disappears, and thus whether it is dead or not is able to be easily determined by observing whether it moves or not. Among the nine candidate materials, Febendazole, Pyrantel, Levamisole, Piperazine, Ivermectin, Trichlorfon, and Praziqantel were purchased from Sigma Aldrich (USA), and hydrogen peroxide and formalin solution were purchased from Junsei (Japan). Among the candidate materials, a poorly soluble compound, Febendazole, was dissolved in 100% ethanol and diluted with PBS to be used. Piperazine and Ivermectin were dissolved in dimethylsulfoxide (DMSO) and diluted with PBS to be used.
Clavinema mariae was extracted from Sebastes schlegeli (average weight: 150 g) cultivated on the west coast of Cheonsu Bay area (FIG. 1), 2 ml of each candidate material diluted with PBS to have each concentration was dispensed into a 6-well plate. Ten (10) living Clavinema mariae were placed in each well, and viability thereof was confirmed after 1 hour (FIG. 2).

Sebastes schlegeli [2] = test: Mortality (death of fish) of treated Sebastes schlegeli
Description: For the oral administration, a predetermined amount of each candidate material was mixed with blended powder feed to prepare a feed pellet, the Sebastes schlegeli was anesthetized, and the feed pellet was inserted up to the stomach with tweezers (FIG. 2). […] After 2 weeks, all experimental fishes were anesthetized with MS-222, and Clavinema mariae was extracted with tweezers to confirm the death. The control group was anesthetized, and then only feed pill to which the drug is not added was orally administered thereto.
For this purpose, 10 Sebastes schlegeli infected with Clavinema mariae were divided for each experimental group, and when two weeks passed after the Ivermectin was administered a total of 1 to 4 times daily or every 2 to 4 days while changing an oral administration concentration from 1 to 18 ppm, the antiparasitic effect and the mortality of the Clavinema mariae were observed.

Clavinema mariae [3] = test: In vivo killing (antiparasitic) effect in Sebastes schlegeli naturally infected with Clavinema mariae
Description: 500 Sebastes schlegeli (116±17 g, 20±9 cm) on the west coast region of Korea were purchased and were allowed to habituate at a water temperature of 18.5 to 21° C. in a sea water tank for one week. Since the Sebastes schlegeli infected with Clavinema mariae is able to be confirmed by visual inspection, the Sebastes schlegeli was anesthetized with MS-222, and only the Sebastes schlegeli infected with Clavinema mariae was screened by visual inspection and used for clinical examination.

[4] = humans, after oral administration; cited from earlier work
Sebastes schlegeli [5] = test: Histological analysis (H&E) of internal organs after Ivermectin oral administration; assay type: in vivo; conditions: for hepatocyte (liver histology): oral, 4 times, one week after last administration
Description: Ivermectin was orally administered to Sebastes schlegeli according to dosing concentrations, dosing times, and dosing intervals described in Table 6, and after one week from the last oral administration, histological analysis of internal organs was performed. The histological analysis was performed by fixing the liver, kidney, spleen and gill of the experimental fish with 10% neutral formalin, followed by dehydration and paraffin embedding, and the cut tissues were stained with hematoxylin-eosin (H & E) and examined. As a result of histopathological examination, the spleen, kidney, and gill except the liver were normal in all tissues as compared with the control group. […] Therefore, it was confirmed that administration of 1 ppm of Ivermectin 4 times daily or every 2 to 3 days or administration of 2 ppm of Ivermectin every 2 to 3 days was the most preferable administration method in view of stability.

[6] = 1 h, read-out: Viability of Clavinema mariae (Dead %/Survived)
[7] = oral, 5 ppm, 1 administration, after 2 weeks
[8] = medicated bath, 50 ppm, 10 minutes, 1 bath, observed for 2 weeks
[9] = at the concentrations shown in Table 4, once, after 2 weeks
[10] = medicated bath, 50 ppm, 10 minutes, 1 bath, after 2 weeks

COP(=O)(OC)C(O)C(Cl)(Cl)Cl (stereo not shown) [Trichlorfon]
Viability of Clavinema mariae (Dead %/Survived) (Clavinema mariae [1]; 2.5 ppm in PBS): Survived | Viability of Clavinema mariae (Dead %/Survived) (Clavinema mariae [1]; 25 ppm in PBS): Survived | mortality at 50 ppm (Clavinema mariae [1]; [6]): 100% | mortality at 75 ppm (Clavinema mariae [1]; [6]): 100% | Antiparasitic effect of Clavinema mariae in vitro compared with the recommended concentration (Clavinema mariae [1]): showed the antiparasitic effect at a very high concentration | Killing Concentration (ppm) (Clavinema mariae [1]): 25-50 ppm

COC(=O)Nc1nc2ccc(Sc3ccccc3)cc2[nH]1 [Fenbendazole]
Death of fish (%) (Sebastes schlegeli [2]; oral, 5 ppm, 1 administration, observed for 2 weeks): 0% | Death of fish (%) (Sebastes schlegeli [2]; oral, 15 ppm, 1 administration, observed for 2 weeks): 0% | Viability of Clavinema mariae (Dead %/Survived) (Clavinema mariae [1]; 1.7 ppm in PBS): Survived | Viability of Clavinema mariae (Dead %/Survived) (Clavinema mariae [1]; 5 ppm in PBS): Survived | mortality at 15 ppm (Clavinema mariae [1]; [6]): 100% | mortality at 30 ppm (Clavinema mariae [1]; [6]): 100% | Killing Concentration (ppm) (Clavinema mariae [1]): 5-15 ppm | Killing Effect (%) (Clavinema mariae [3]; [7]): 0% | Killing Effect (%) (Clavinema mariae [3]; oral, 15 ppm, 1 administration, after 2 weeks): 0%

CC[C@H](C)[C@H]1O[C@]2(C=C[C@@H]1C)C[C@@H]1C[C@@H](C/C=C(\C)[C@@H](O[C@H]3C[C@H](OC)[C@@H](O[C@H]4C[C@H](OC)[C@@H](O)[C@H](C)O4)[C@H](C)O3)[C@@H](C)/C=C/C=C3\CO[C@@H]4[C@H](O)C(C)=C[C@@H](C(=O)O1)[C@]34O)O2 [avermectin]
Time to maximum plasma concentration [4]: 4 h | half-life [4]: about 16 hours

C1CNCCN1 [Piperazine]
Death of fish (%) (Sebastes schlegeli [2]; oral, 100 ppm, 1 administration, observed for 2 weeks): 0% | Death of fish (%) (Sebastes schlegeli [2]; oral, 300 ppm, 1 administration, observed for 2 weeks): 30% | mortality at 50 ppm (Clavinema mariae [1]; [6]): 100% | mortality at 75 ppm (Clavinema mariae [1]; [6]): 100% | mortality at 100 ppm (Clavinema mariae [1]; [6]): 100% | Antiparasitic effect of Clavinema mariae in vitro compared with the recommended concentration (Clavinema mariae [1]): at a lower concentration than the recommended concentration | Killing Concentration (ppm) (Clavinema mariae [1]): 33-50 ppm | Killing Effect (%) (Clavinema mariae [3]; oral, 100 ppm, 1 administration, after 2 weeks): 0% | Killing Effect (%) (Clavinema mariae [3]; oral, 300 ppm, 1 administration, after 2 weeks): 0%

CN1CCCN=C1/C=C/c1cccs1 [Pyrantel]
Death of fish (%) (Sebastes schlegeli [2]; oral, 2.7 ppm, 1 administration, observed for 2 weeks): 0% | mortality at 0.06 ppm (Clavinema mariae [1]; [6]): 20% | mortality at 0.09 ppm (Clavinema mariae [1]; [6]): 100% | mortality at 0.9 ppm (Clavinema mariae [1]; [6]): 100% | Antiparasitic effect of Clavinema mariae in vitro compared with the recommended concentration (Clavinema mariae [1]): at a lower concentration than the recommended concentration | Killing Concentration (ppm) (Clavinema mariae [1]): 0.02-0.06 ppm | Killing Effect (%) (Clavinema mariae [3]; oral, 2.7 ppm, 1 administration, after 2 weeks): 0%

c1ccc([C@H]2CN3CCSC3=N2)cc1 [Levamisole]
mortality at 0.5 ppm (Clavinema mariae [1]; [6]): 20% | mortality at 1 ppm (Clavinema mariae [1]; [6]): 100% | mortality at 1.7 ppm (Clavinema mariae [1]; [6]): 100% | Antiparasitic effect of Clavinema mariae in vitro compared with the recommended concentration (Clavinema mariae [1]): at a lower concentration than the recommended concentration | Killing Effect (%) (Clavinema mariae [3]; oral, 2.5 ppm, 1 administration, after 2 weeks): 0% | Killing Effect (%) (Clavinema mariae [3]; [7]): 0%

Ivermectin
Death of fish (%) (Sebastes schlegeli [2]; oral, 1 ppm, 1 administration, observed for 2 weeks): 0% | Death of fish (%) (Sebastes schlegeli [2]; oral, 1 ppm, 4 times, everyday): 0% | Death of fish (%) (Sebastes schlegeli [2]; oral, 1 ppm, 4 times, intervals 2-3 days): 0% | Behaviour and death of Sebastes schlegeli (Sebastes schlegeli [2]; oral, 2 ppm, 4 times): some Sebastes schlegeli were sitting on the bottom and died | Death of fish (%) (Sebastes schlegeli [2]; oral, 2 ppm, 4 times, everyday): 20% | Death of fish (%) (Sebastes schlegeli [2]; oral, 2 ppm, 4 times, intervals 2-3 days): 0% | Death of Sebastes schlegeli (Sebastes schlegeli [2]; oral, 3 ppm or more): death occurred after being administered 2 times | Death of fish (%) (Sebastes schlegeli [2]; oral, 3 ppm, 2 times, everyday): 60% | Death of fish (%) (Sebastes schlegeli [2]; oral, 3 ppm, 2 times, interval 3 days): 20% | Death of fish (%) (Sebastes schlegeli [2]; oral, 4 ppm, 2 times, everyday): 60% | Death of fish (%) (Sebastes schlegeli [2]; oral, 5 ppm, 2 times, everyday): 30% | Death of fish (%) (Sebastes schlegeli [2]; oral, 6 ppm, 2 times, interval 4 days): 70% | Death of fish (%) (Sebastes schlegeli [2]; oral, 18 ppm, 1 time): 100% | Histopathological examination of spleen, kidney and gill (Sebastes schlegeli [5]; all regimens of Table 6, compared with the control group): normal | hepatocyte (liver histology) (Sebastes schlegeli [5]; 1 ppm, 2-3 days): Abnormality of the liver tissue was not confirmed; also recorded: Normal | hepatocyte (liver histology) (Sebastes schlegeli [5]; 1 ppm, everyday): Abnormality of the liver tissue was not confirmed; also recorded: Normal | hepatocyte (liver histology) (Sebastes schlegeli [5]; 2 ppm, 2-3 days): Abnormality of the liver tissue was not confirmed; also recorded: Normal | hepatocyte (liver histology) (Sebastes schlegeli [5]; 2 ppm, everyday): hepatocyte metamorphosis, vacuolar formation | Viability of Clavinema mariae (Dead %/Survived) (Clavinema mariae [1]; 0.001 ppm in PBS): Survived | Viability of Clavinema mariae (Dead %/Survived) (Clavinema mariae [1]; 0.01 ppm in PBS): Dead (100%) | Viability of Clavinema mariae (Dead %/Survived) (Clavinema mariae [1]; 0.05 ppm in PBS): Dead (100%) | Viability of Clavinema mariae (Dead %/Survived) (Clavinema mariae [1]; 0.5 ppm in PBS): Dead (100%) | Antiparasitic effect of Clavinema mariae in vitro compared with the recommended concentration (Clavinema mariae [1]): at a lower concentration than the recommended concentration | Killing Concentration (ppm) (Clavinema mariae [1]): 0.001-0.01 ppm | Time until the spot where the pus is formed disappeared and was completely cured (Clavinema mariae [3]; oral, 1 ppm once): ≤ 6 weeks | Antiparasitic effect against Clavinema mariae on Sebastes schlegeli (Clavinema mariae [3]; oral, 1 ppm once, after two weeks): some individuals had pus in a spot infected with the Clavinema mariae, and showed the antiparasitic effect | Killing Effect (%) (Clavinema mariae [3]; oral, 1 ppm, 1 administration, after 2 weeks): 20% | Killing Effect (%) (Clavinema mariae [3]; oral, 1 ppm, 4 times, everyday, after two weeks): 100% | Killing Effect (%) (Clavinema mariae [3]; oral, 1 ppm, 4 times, intervals 2-3 days, after two weeks): 100% | Nematode antiparasitic effect (Clavinema mariae [3]; oral, 1 to 2 ppm, 4 times): 100% | State of the infection area after 6 weeks (Clavinema mariae [3]; oral, 1 to 2 ppm, 4 times, after 6 weeks): the infection area was cleanly treated | Killing Effect (%) (Clavinema mariae [3]; oral, 2 ppm, 4 times, everyday, after two weeks): 100% | Killing Effect (%) (Clavinema mariae [3]; oral, 2 ppm, 4 times, intervals 2-3 days, after two weeks): 100% | Killing Effect (%) (Clavinema mariae [3]; oral, 3 ppm, 2 times, everyday, after two weeks): 100% | Killing Effect (%) (Clavinema mariae [3]; oral, 3 ppm, 2 times, interval 3 days, after two weeks): 100% | Killing Effect (%) (Clavinema mariae [3]; oral, 4 ppm, 2 times, everyday, after two weeks): 100% | Killing Effect (%) (Clavinema mariae [3]; oral, 5 ppm, 2 times, everyday, after two weeks): 100% | Killing Effect (%) (Clavinema mariae [3]; oral, 6 ppm, 2 times, interval 4 days, after two weeks): 100%

OO [Hydrogen peroxide]
Death of fish (%) (Sebastes schlegeli [2]; medicated bath, 10 ppm, 10 minutes, 1 bath, observed for 2 weeks): 0% | Death of fish (%) (Sebastes schlegeli [2]; [8]): 0% | mortality at 5 ppm (Clavinema mariae [1]; [6]): 100% | mortality at 10 ppm (Clavinema mariae [1]; [6]): 100% | mortality at 14 ppm (Clavinema mariae [1]; [6]): 100% | mortality at 280 ppm (Clavinema mariae [1]; [6]): 100% | Antiparasitic effect of Clavinema mariae in vitro compared with the recommended concentration (Clavinema mariae [1]): at a lower concentration than the recommended concentration | Killing Concentration (ppm) (Clavinema mariae [1]): <5 ppm | Antiparasitic effect against Clavinema mariae on Sebastes schlegeli (Clavinema mariae [3]; [9]): could not be confirmed to have the antiparasitic effect | Killing Effect (%) (Clavinema mariae [3]; medicated bath, 10 ppm, 10 minutes, 1 bath, after 2 weeks): 0% | Killing Effect (%) (Clavinema mariae [3]; [10]): 0%

O=C(C1CCCCC1)N1CC(=O)N2CCc3ccccc3C2C1 (stereo not shown) [Praziquantel]
mortality at 800 ppm (Clavinema mariae [1]; [6]): 100% | mortality at 1600 ppm (Clavinema mariae [1]; [6]): 100% | Antiparasitic effect of Clavinema mariae in vitro compared with the recommended concentration (Clavinema mariae [1]): did not show the antiparasitic effect of Clavinema mariae at a concentration 2000 times higher than the recommended concentration | Killing Concentration (ppm) (Clavinema mariae [1]): 400-800 ppm

C=O [Formaline, Formalin]
Death of fish (%) (Sebastes schlegeli [2]; [8]): 0% | Death of fish (%) (Sebastes schlegeli [2]; medicated bath, 200 ppm, 10 minutes, 1 bath, observed for 2 weeks): 0% | mortality at 25 ppm (Clavinema mariae [1]; [6]): 100% | mortality at 50 ppm (Clavinema mariae [1]; [6]): 100% | mortality at 70 ppm (Clavinema mariae [1]; [6]): 100% | mortality at 350 ppm (Clavinema mariae [1]; [6]): 100% | Antiparasitic effect of Clavinema mariae in vitro compared with the recommended concentration (Clavinema mariae [1]): at a lower concentration than the recommended concentration | Killing Concentration (ppm) (Clavinema mariae [1]): 25 ppm | Antiparasitic effect against Clavinema mariae on Sebastes schlegeli (Clavinema mariae [3]; [9]): could not be confirmed to have the antiparasitic effect | Killing Effect (%) (Clavinema mariae [3]; [10]): 0% | Killing Effect (%) (Clavinema mariae [3]; medicated bath, 200 ppm, 10 minutes, 1 bath, after 2 weeks): 0%
